Source: ChEMBL document CHEMBL1140422, “A new bisintercalating anthracycline with picomolar DNA binding affinity” (J Med Chem, 2005)
pIC50: −log10 of the molar value.

System: Jurkat
Assay: Cytotoxicity against Jurkat T lymphocytes by MTT assay
Assay type: functional, cell-based
Conditions: Homo sapiens

In order of falling pIC50:
1. COc1cccc2c1C(=O)c1c(O)c3c(c(O)c1C2=O)C[C@@](O)(C(C)=O)C[C@@H]3O[C@H]1C[C@H](NCc2cccc(CN[C@@H]3C[C@@H](O[C@H]4C[C@](O)(C(C)=O)Cc5c(O)c6c(c(O)c54)C(=O)c4c(OC)cccc4C6=O)O[C@H](C)[C@@H]3O)c2)[C@H](O)[C@H](C)O1  7.77
2. COc1cccc2c1C(=O)c1c(O)c3c(c(O)c1C2=O)C[C@@](O)(C(C)=O)C[C@@H]3O[C@H]1C[C@H](NCc2ccc(CN[C@@H]3C[C@@H](O[C@H]4C[C@](O)(C(C)=O)Cc5c(O)c6c(c(O)c54)C(=O)c4c(OC)cccc4C6=O)O[C@H](C)[C@@H]3O)cc2)[C@H](O)[C@H](C)O1  7.75
3. COc1cccc2c1C(=O)c1c(O)c3c(c(O)c1C2=O)C[C@@](O)(C(C)=O)C[C@@H]3O[C@H]1C[C@H](N)[C@H](O)[C@H](C)O1 [DAUNORUBICIN]  7.08

In order of falling IC75:
1. COc1cccc2c1C(=O)c1c(O)c3c(c(O)c1C2=O)C[C@@](O)(C(C)=O)C[C@@H]3O[C@H]1C[C@H](N)[C@H](O)[C@H](C)O1 [DAUNORUBICIN]  0.182 µM
2. COc1cccc2c1C(=O)c1c(O)c3c(c(O)c1C2=O)C[C@@](O)(C(C)=O)C[C@@H]3O[C@H]1C[C@H](NCc2ccc(CN[C@@H]3C[C@@H](O[C@H]4C[C@](O)(C(C)=O)Cc5c(O)c6c(c(O)c54)C(=O)c4c(OC)cccc4C6=O)O[C@H](C)[C@@H]3O)cc2)[C@H](O)[C@H](C)O1  0.06 µM
3. COc1cccc2c1C(=O)c1c(O)c3c(c(O)c1C2=O)C[C@@](O)(C(C)=O)C[C@@H]3O[C@H]1C[C@H](NCc2cccc(CN[C@@H]3C[C@@H](O[C@H]4C[C@](O)(C(C)=O)Cc5c(O)c6c(c(O)c54)C(=O)c4c(OC)cccc4C6=O)O[C@H](C)[C@@H]3O)c2)[C@H](O)[C@H](C)O1  0.0535 µM
